“And” between values parts separate entries of the source, which are not always exact repeats. Equal entries are not always repeated. Toxic doses and inconclusive results are not listed. Rule for the calls: active = survival T/C of 150% or more; inactive = T/C below 125% in these data.
System: P388 leukemia ip, CD2F1 mice, survival T/C
Experiment: NCI In Vivo Anticancer Drug Screen. Data for tumor model P388 Leukemia (intraperitoneal) in CD2F1 (CDF1) mice
Settings: endpoint: median survival time, higher = longer survival
Outline: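 Mice carrying the transplanted tumor received test compound or vehicle. Survival was recorded in each group, and the value is the treated-group measurement divided by that of the vehicle-treated control group.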

[1] = dose: 25.0 mg/kg/injection, schedule: Q01DX009 (ip), vehicle: saline with Tween-80
[2] = dose: 50.0 mg/kg/injection, schedule: Q01DX009 (ip), vehicle: saline with Tween-80
[3] = dose: 100.0 mg/kg/injection, schedule: Q01DX009 (ip), vehicle: saline with Tween-80
[4] = dose: 12.5 mg/kg/injection, schedule: Q01DX009 (ip), vehicle: saline
[5] = dose: 25.0 mg/kg/injection, schedule: Q01DX009 (ip), vehicle: saline
[6] = dose: 50.0 mg/kg/injection, schedule: Q01DX009 (ip), vehicle: saline
[7] = dose: 60.0 mg/kg/injection, schedule: Q01DX005 (ip), vehicle: Klucel (hydroxypropylcellulose) (HPC)
[8] = dose: 120.0 mg/kg/injection, schedule: Q01DX005 (ip), vehicle: Klucel (hydroxypropylcellulose) (HPC)
[9] = dose: 240.0 mg/kg/injection, schedule: Q01DX005 (ip), vehicle: Klucel (hydroxypropylcellulose) (HPC)
[10] = dose: 50.0 mg/kg/injection, schedule: Q01DX005 (ip), vehicle: saline with Tween-80
[11] = dose: 100.0 mg/kg/injection, schedule: Q01DX005 (ip), vehicle: saline with Tween-80
[12] = dose: 200.0 mg/kg/injection, schedule: Q01DX005 (ip), vehicle: saline with Tween-80

Measured: T/C

CC(NC(=O)C(CO)NC(=O)c1cnc2ccccc2n1)C(=O)OC(C)(C)C (stereo unspecified)
inactive: dose: 60.0 mg/kg/injection, schedule: Q01DX005 (ip), vehicle: DMSO 98 % of control | dose: 120.0 mg/kg/injection, schedule: Q01DX005 (ip), vehicle: DMSO 99 % of control | dose: 240.0 mg/kg/injection, schedule: Q01DX005 (ip), vehicle: DMSO 109 % of control

O=C1C=C2CCCCCCCC(C1)C2 (stereo unspecified)
inactive: dose: 50.0 mg/kg/injection, schedule: Q01DX005 (ip), vehicle: Klucel (hydroxypropylcellulose) (HPC) 113 % of control | dose: 100.0 mg/kg/injection, schedule: Q01DX005 (ip), vehicle: Klucel (hydroxypropylcellulose) (HPC) 108 % of control | dose: 200.0 mg/kg/injection, schedule: Q01DX005 (ip), vehicle: Klucel (hydroxypropylcellulose) (HPC) 110 % of control

Cc1ccc(C)c2c1CCC2C (stereo unspecified)
inactive: [1] 101 % of control and 110 % of control | [2] 111 % of control and 116 % of control | [3] 104 % of control and 114 % of control

COc1ccc(C#CC(O)C(F)(F)F)cc1 (stereo unspecified)
inactive: [1] 102 % of control | [2] 106 % of control | [3] 107 % of control

O=[N+]([O-])c1nccn1C1OC(CO)C(O)C1O (stereo unspecified)
inactive: dose: 6.25 mg/kg/injection, schedule: Q01DX009 (ip), vehicle: saline 98 % of control | [4] 99 % of control | [5] 104 % of control | [6] 104 % of control

O=C1c2cccc(NCCNCCO)c2C(=O)c2cccc(Cl)c21
inactive: dose: 5.0 mg/kg/injection, schedule: Q01DX009 (ip), vehicle: acid diluted with saline 98 % of control | dose: 10.0 mg/kg/injection, schedule: Q01DX009 (ip), vehicle: acid diluted with saline 113 % of control | dose: 20.0 mg/kg/injection, schedule: Q01DX009 (ip), vehicle: acid diluted with saline 115 % of control | dose: 40.0 mg/kg/injection, schedule: Q01DX009 (ip), vehicle: acid diluted with saline 113 % of control | dose: 80.0 mg/kg/injection, schedule: Q01DX009 (ip), vehicle: acid diluted with saline 124 % of control | dose: 160.0 mg/kg/injection, schedule: Q01DX009 (ip), vehicle: acid diluted with saline 120 % of control

COC(=O)c1nc(=S)[nH]c(C(=O)OC)c1C(=O)c1c(C)[nH]c2ccccc12
inactive: [7] 98 % of control | [8] 96 % of control | [9] 95 % of control

C/C=C(/C)C(=O)OC1CC(C)=CC(OC(=O)/C(C)=C\C)[C@]2(C)C1[C@](O)(C(C)C)C[C@H]2O (stereo partly specified)
inactive: dose: 2.0 mg/kg/injection, schedule: Q01DX005 (ip), vehicle: Klucel (hydroxypropylcellulose) (HPC) 106 % of control | dose: 4.0 mg/kg/injection, schedule: Q01DX005 (ip), vehicle: Klucel (hydroxypropylcellulose) (HPC) 96 % of control | dose: 8.0 mg/kg/injection, schedule: Q01DX005 (ip), vehicle: Klucel (hydroxypropylcellulose) (HPC) 99 % of control | dose: 16.0 mg/kg/injection, schedule: Q01DX005 (ip), vehicle: Klucel (hydroxypropylcellulose) (HPC) 99 % of control

C=CCC(C(=O)OC)c1cc(OC)c(OC)c(OC)c1 (stereo unspecified)
inactive: dose: 1.25 mg/kg/injection, schedule: Q01DX009 (ip), vehicle: saline 97 % of control | dose: 2.5 mg/kg/injection, schedule: Q01DX009 (ip), vehicle: saline 100 % of control | dose: 5.0 mg/kg/injection, schedule: Q01DX009 (ip), vehicle: saline 115 % of control

C=CCOc1cc2c(cc1C(C)c1ccccc1OC)OCO2 (stereo unspecified)
inactive: [10] 99 % of control | [11] 97 % of control | [12] 104 % of control

CCN(CC)CCCOC(=O)c1ccc(N)cc1
inactive: [4] 100 % of control | dose: 12.5 mg/kg/injection, schedule: Q04DX003 (ip), vehicle: saline 91 % of control | [5] 109 % of control | dose: 25.0 mg/kg/injection, schedule: Q04DX003 (ip), vehicle: saline 91 % of control | [6] 104 % of control | dose: 50.0 mg/kg/injection, schedule: Q04DX003 (ip), vehicle: saline 87 % of control

O=C(O)/C=C/C(=O)NNc1nc2ccccc2s1
inactive: [7] 97 % of control | [8] 96 % of control | [9] 89 % of control

CCCCCC1OC1CC1OC1CCCCCCCC(=O)O (stereo unspecified)
inactive: [6] 99 % of control | dose: 100.0 mg/kg/injection, schedule: Q01DX009 (ip), vehicle: saline 90 % of control | dose: 200.0 mg/kg/injection, schedule: Q01DX009 (ip), vehicle: saline 86 % of control

CC(NCc1ccccc1)[Si](C)(C)C (stereo unspecified)
inactive: [10] 102 % of control | [11] 105 % of control

O=C1OC(c2ccccc2)N(c2ccccc2)C(=O)C1Cc1ccccc1 (stereo unspecified)
inactive: [7] 103 % of control | [8] 98 % of control | [9] 110 % of control

CC(C)N(C(C)C)C(C(=O)OCC(O)C(O)C(O)C(O)C(=O)O)N(C(C)C)C(C)C (stereo unspecified)
inactive: dose: 50.0 mg/kg/injection, schedule: Q01DX009 (ip), vehicle: Klucel (hydroxypropylcellulose) (HPC) 113 % of control | dose: 100.0 mg/kg/injection, schedule: Q01DX009 (ip), vehicle: Klucel (hydroxypropylcellulose) (HPC) 97 % of control | dose: 200.0 mg/kg/injection, schedule: Q01DX009 (ip), vehicle: Klucel (hydroxypropylcellulose) (HPC) 111 % of control

C=C1CC2(CC3(C(C)C)CC3C2C)OC1=O (stereo unspecified)
inactive: dose: 100.0 mg/kg/injection, schedule: Q01DX001 (ip), vehicle: saline 100 % of control | dose: 200.0 mg/kg/injection, schedule: Q01DX001 (ip), vehicle: saline 99 % of control | dose: 400.0 mg/kg/injection, schedule: Q01DX001 (ip), vehicle: saline 110 % of control

COc1cc([C@@H]2c3cc4c(cc3[C@H](O)[C@@H](CO)[C@@H]2C(=O)O)OCO4)cc(OC)c1OC
inactive: dose: 50.0 mg/kg/injection, schedule: Q01DX005 (ip), vehicle: saline 90 % of control | dose: 100.0 mg/kg/injection, schedule: Q01DX005 (ip), vehicle: saline 94 % of control | dose: 200.0 mg/kg/injection, schedule: Q01DX005 (ip), vehicle: saline 93 % of control

COc1ccc(Cc2cc3c(cc2OCC(=O)O)OCO3)cc1
inactive: [10] 97 % of control | [11] 100 % of control | [12] 93 % of control

COc1ccc(C(=O)C2C(=O)C(=O)OC2C2OC(=O)C(=O)C2C(=O)c2ccc(OC)cc2)cc1 (stereo unspecified)
inactive: dose: 30.0 mg/kg/injection, schedule: Q01DX005 (ip), vehicle: saline 100 % of control | dose: 60.0 mg/kg/injection, schedule: Q01DX005 (ip), vehicle: saline 94 % of control and 95 % of control | dose: 120.0 mg/kg/injection, schedule: Q01DX005 (ip), vehicle: saline 93 % of control

O=C(NC1(OC(=O)c2ccc(Cl)cc2)CC1)c1ccc(Cl)cc1
inactive: [7] 103 % of control | [8] 104 % of control | [9] 89 % of control

CC(=O)c1ccc[n+](CCc2c[nH]c3ccccc23)c1
inactive: dose: 12.5 mg/kg/injection, schedule: Q01DX009 (ip), vehicle: saline with Tween-80 104 % of control | [1] 113 % of control | [2] 109 % of control

O=C(O)C1CC(c2ccccc2)=NN1c1ccccc1 (stereo unspecified)
inactive: dose: 12.5 mg/kg/injection, schedule: Q01DX009 (ip), vehicle: water 99 % of control | dose: 25.0 mg/kg/injection, schedule: Q01DX009 (ip), vehicle: water 98 % of control | dose: 50.0 mg/kg/injection, schedule: Q01DX009 (ip), vehicle: water 103 % of control | dose: 88.0 mg/kg/injection, schedule: Q01DX009 (ip), vehicle: water 112 % of control and 120 % of control | dose: 100.0 mg/kg/injection, schedule: Q01DX009 (ip), vehicle: water 109 % of control | dose: 133.0 mg/kg/injection, schedule: Q01DX009 (ip), vehicle: water 119 % of control and 124 % of control | dose: 200.0 mg/kg/injection, schedule: Q01DX009 (ip), vehicle: water 123 % of control | dose: 300.0 mg/kg/injection, schedule: Q01DX009 (ip), vehicle: water 122 % of control

C=C1N(C)c2ccccc2C1(C)C
inactive: dose: 4.0 mg/kg/injection, schedule: Q01DX009 (ip), vehicle: saline with Tween-80 113 % of control | dose: 5.9 mg/kg/injection, schedule: Q01DX009 (ip), vehicle: saline with Tween-80 123 % of control | dose: 9.0 mg/kg/injection, schedule: Q01DX009 (ip), vehicle: saline with Tween-80 110 % of control | dose: 13.0 mg/kg/injection, schedule: Q01DX009 (ip), vehicle: saline with Tween-80 108 % of control and 118 % of control | dose: 19.0 mg/kg/injection, schedule: Q01DX009 (ip), vehicle: saline with Tween-80 106 % of control | dose: 29.0 mg/kg/injection, schedule: Q01DX009 (ip), vehicle: saline with Tween-80 109 % of control | dose: 45.0 mg/kg/injection, schedule: Q01DX009 (ip), vehicle: saline with Tween-80 115 % of control

CCC(=O)c1ccc(OCC(O)COc2c3ccccc3nc3ccccc23)cc1 (stereo unspecified)
inactive: [10] 87 % of control | [11] 90 % of control | [12] 92 % of control

From PubChem BioAssay AID330 (DTP/NCI, 2004)
